Assay results: paper PMC7922564, “Molecular Insights into an Antibiotic Enhancer Action of New Morpholine-Containing 5-Arylideneimidazolones in the Fight against MDR Bacteria” (International Journal of Molecular Sciences, 2021)
Values joined by “and” are separate entries in the source; they are usually repeats but may differ in a detail not shown here. Identical values can stand only once. Like-named read-outs stand apart in the source and are kept apart here.

What was measured:
[1] = test system: S. aureus ATCC 25923; test: MIC determination (microdilution), S. aureus ATCC 25923; format: cell-based, Staphylococcus aureus; details: for MIC: Staphylococcus aureus, ATCC25923, unstarred values of column MIC value/no precipitation, read-out: MIC value
Experimental: (§1) Determination of MIC values, i.e., intrinsic antibacterial activity, of products and antibiotics (oxacillin, ampicillin, vancomycin, ciprofloxacin, and erythromycin) in the presence and absence of compounds tested was conducted by the use of a standard 2-fold microdilution method in cation-adjusted Mueller Hinton broth following the Clinical and Laboratory Standards Institute (CLSI) guidelines. The MIC values were detected using an Infinite M200 pro Tecan microplate reader (Tecan® France, SA-Lyon, France). MIC determinations were conducted in 96-well microtiter plates and repeated 3–4 times.
(§2) Initially, MICs of a series of imidazolone derivatives were assessed against susceptible (reference) and MDR strains of staphylococci. Next, MIC values of the aforementioned antibiotics were determined in the absence and presence of imidazolone derivatives to assess the chemosensitizing effect of these compounds. […] 5-arylideneimidazolones and 5-arylidenethiazolones, which precipitated after addition to bacterial suspension in MH II medium, were tested at the highest concentrations at which precipitation was not observed. […] Antibacterial activity of compounds and antibiotics ampicillin, vancomycin, ciprofloxacin, and erythromycin was recorded as the lowest concentration of molecules able to inhibit bacterial growth after 18 h incubation at 37 °C. The incubation of bacterial strains exposed to oxacillin paired with compounds tested was conducted at 35 °C and extended to 24 h due to frequent occurrence of heterogeneity among MRSA strains. The results are presented as activity gain (A) parameter which was calculated as ratio of MIC of a certain antibiotic (MICAnt) to its MICAnt+Comp, observed in combination with a tested compound (7, 12–16, 19, or 20; Equation (1)). (1) A=(MICAnt/MICAnt+Comp)

[2] = test system: MRSA 19449; test: MIC determination (microdilution), MRSA 19449; format: cell-based, Staphylococcus aureus; details: for MIC: Staphylococcus aureus, MRSA, no precipitation
Experimental: as §1, §2

[3] = test system: K. aerogenes Ea-289 (overexpression of AcrAB-TolC); test: MIC of compounds, K. aerogenes Ea-289; format: cell-based; details: Klebsiella aerogenes
Experimental: At first, MIC values of compounds were determined (Table S15, Supplementary). Next, their abilities to reduce MICs of the AcrAB-TolC substrates doxycycline (a tetracycline-class antibiotic) and erythromycin were studied (Table S16, Supplementary). […]
as §1
(§3) MIC values of 5-arylideneimidazolone derivatives were determined following CLSI recommendations as in the methods described for S. aureus (Section 3.3.1).

[4] = test system: K. aerogenes Ea-289; test: MIC reduction assay (antibiotic adjuvant), K. aerogenes Ea-289; format: cell-based, Klebsiella aerogenes;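 further: compound at no more than one quarter of its own MIC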
Experimental: At first, MIC values of compounds were determined (Table S15, Supplementary). Next, their abilities to reduce MICs of the AcrAB-TolC substrates doxycycline (a tetracycline-class antibiotic) and erythromycin were studied (Table S16, Supplementary).
(§4) A subset of compounds, namely 7, 12–16, 19, 20, was also examined for the potential to increase the effectiveness of the antibiotics chloramphenicol, erythromycin, doxycycline, and the fluoroquinolone antibiotic norfloxacin, which all are substrates for AcrAB-TolC in K. aerogenes. In addition to strain Ea-289, the adjuvant-like effect of the compounds was investigated in strain CM-64, which also overexpresses the AcrAB-TolC efflux pump, although it has no changes in porin content, and in the Ea-289 derivatives, i.e., Ea-294 and Ea-308, which are devoid of AcrAB (Table S17, Supplementary).
as §2, §3

[5] = Water solubility (UV spectroscopy); format: physicochemical
Excerpt: Six representatives of 5-arylideneimidazolones (9–12, 15, 19) were chosen for the determination of water solubility. UV spectroscopy was used for the estimation of concentrations of compounds according to the method described earlier. Acquired UV absorbance, calculated means, and standard deviations for tested compounds are presented in Supplementary Table S18. Solubility results, presented in Table 6, point out that compounds from the same group (A or B, Table 1 and Table 2) with the two-ring aromatic moiety are more soluble than compounds with the fluorene motive (Group A: 9, 10, 11 vs. 12; Group B: 15 vs. 19). […] The most soluble of tested compounds was compound 15, which could be dissolved in water at a concentration of up to 205.502 mM/L.
Water solubility was obtained using UV spectroscopy method. Absorbance of tested solutions of compounds 9-12, 15, and 19, respectively in suitable dilution, in three repetitions as well as calculated arithmetic means, solubility and standard deviations are presented in Table S18. the solubility results […]
Table S18. Results of absorbance used for estimation of water solubility of tested compounds (9-12, 15, 19).
Abbreviations: A1, A2,and A3, UV absorbance in first, second, and third repetition; Amean, arithmetic mean of absorbance from three repetitions; s, standard deviation for absorbance; S, water solubility; SD – standard deviation for solubility. […]

[6] = Stability in acidic and basic conditions (TLC); format: physicochemical; details: for Number of TLC spots: 1 = stable
Experimental: Compounds 9–12, 15, and 19 were also tested for their stability in acidic and basic conditions. This assay was carried out for 48 h and samples were taken at six-time intervals (10 min, 1 h, 2 h, 3 h, 24 h, 48 h). Stability of the compounds was determined using the TLC method. […] In basic conditions, only compounds 10 and 15 were stable for 24 h. […] Results with details, including time of degradation of products obtained, are presented in the Supplementary (Tables S19 and S20). […]
VI. Stability in different pH conditions
Stability of chosen compounds (9-12, 15, and 19) were determined using the TLC method. Assays were performed in acidic and basic conditions and were carried out for 48 h. Samples were taken at six-time intervals (10 min., 1 h, 2 h, 3 h, 24 h, 48 h). […]
of spots observed on TLC, where 1 indicate that compound is stable (only TLC spot for proper compound was observed). Higher values point out how many products of degradation was observed, which can be calculating by subtracting one from number of spots.
Table S19. Results of chosen compounds (9-12, 15, 19) stability in acidic conditions.
Compound Number of TLC spots in defined time
Table S20. Results of chosen compounds (9-12, 15, 19) stability in basic conditions.

[7] = test system: K. aerogenes Ea-294, Ea-308 (devoid of AcrAB); test: MIC of compounds, K. aerogenes Ea-294, Ea-308; format: cell-based; details: Klebsiella aerogenes, read-out: Minimal Inhibitory Concentration (MIC)
Excerpt: as §4, §1, §3

[8] = test system: K. aerogenes CM-64 (overexpression of AcrAB-TolC); test: MIC of compounds, K. aerogenes CM-64; format: cell-based; details: Klebsiella aerogenes, read-out: Minimal Inhibitory Concentration (MIC)
Excerpt: as §4, §1, §3

[9] = test system: K. aerogenes Ea-294, Ea-308; test: MIC reduction assay (antibiotic adjuvant), K. aerogenes Ea-294, Ea-308; format: cell-based, Klebsiella aerogenes; details: doxycycline, chloramphenicol, norfloxacin, erythromycin;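 further: compound at no more than one quarter of its own MIC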
Excerpt: as §4, §2, §3

[10] = test system: K. aerogenes CM-64; test: MIC reduction assay (antibiotic adjuvant), K. aerogenes CM-64; format: cell-based, Klebsiella aerogenes; details: doxycycline, chloramphenicol, norfloxacin, erythromycin;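 further: compound at no more than one quarter of its own MIC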
Excerpt: as §4, §2, §3

[11] = test system: AcrAB-TolC efflux pump in K. aerogenes strain Ea-289; test: Real-time efflux (RTE) assay, 1,2'-dNA extrusion; format: cell-based, Klebsiella aerogenes; details: compound 100 µM; IE=100% total inhibition of efflux
Experimental: Compounds 7, 12–16, 19, and 20 were also assessed for their EPI property in K. aerogenes strain Ea-289 with the use of a real-time efflux (RTE) assay. Results for compounds 16 and 20 were previously described. The experiment is based on the measurement of the extrusion of a fluorescent dye from bacterial cells overproducing efflux pump transporters in the presence and absence of compounds tested. The dye used in this assay, 1,2’ –dinaphthylamine (1,2’-dNA), is a substrate for the AcrAB-TolC efflux pump, and is strongly fluorescent upon incorporation into a phospholipid bilayer, although it is almost non-fluorescent in an aqueous solution [37, 38].
A likewise strong blocking efficacy (IE = 83 %) was also noticed for compound 12, while the lowest inhibitory effect was found for compound 13 (IE = 23 %).
The inhibitory activity of 5-arylideneimidazolone derivatives towards AcrAB-TolC mediated efflux of 1,2’-dNA was detected in K. aerogenes strain Ea-289 by using a real-time fluorometric method. In a first step, bacterial cells were loaded with the environment-sensitive fluorescent membrane probe, 1,2’-dNA, in the presence of the EPI carbonyl cyanide m-chlorophenylhydrazone (CCCP) which inactivated the pump by dissipating membrane potential. Next, compounds tested were added at the concentration of 100 µM and the efflux was energizing by automated injection of glucose at a dose of 50 µM. The fluorescence intensity was measured in a microplate reader (Tecan) with an excitation wavelength of λex = 370 nm and an emission wavelength of λem = 420 nm.

[12] = read-out: MIC value/no precipitation
[13] = read-out: Minimal Inhibitory Concentration (MIC)
[14] = doxycycline, chloramphenicol, norfloxacin, erythromycin

SMILES | MIC [1] [µM] | MIC [2] [µM] | MIC [3, 12] [µM] | A (activity gain) ([4]; doxycycline) | A (activity gain) ([4]; erythromycin) | solubility [5] | Number of TLC spots ([6]; acidic conditions, 10 min) | Number of TLC spots ([6]; acidic conditions, 1 h) | Number of TLC spots ([6]; acidic conditions, 2 h) | Number of TLC spots ([6]; acidic conditions, 3 h) | Number of TLC spots ([6]; acidic conditions, 24 h) | Number of TLC spots ([6]; acidic conditions, 48 h) | Number of TLC spots ([6]; basic conditions, 10 min) | Number of TLC spots ([6]; basic conditions, 1 h) | Number of TLC spots ([6]; basic conditions, 2 h) | Number of TLC spots ([6]; basic conditions, 3 h) | Number of TLC spots ([6]; basic conditions, 24 h) | Number of TLC spots ([6]; basic conditions, 48 h) | further results
Cc1onc(-c2ccccc2)c1C(=O)N[C@@H]1C(=O)N2[C@@H]1SC(C)(C)[C@@H]2C(=O)O [oxacillin, reference compound] |  |  |  |  |  |  |  |  |  |  |  |  |  |  |  |  |  |  | MIC of the antibiotic alone ([1]; oxacillin alone): 0.25 µg/mL; MIC of the antibiotic alone ([2]; oxacillin alone): 256 µg/mL
NC1=N/C(=C\c2cc3ccccc3c3ccccc23)C(=O)N1CCCN1CCOCC1 [Compound 21] | 31.2 to 250 | 31.2 to 250 | > 250 | 1 | 1 |  |  |  |  |  |  |  |  |  |  |  |  |  | 
O=C1NC(N2CCC(N3CCOCC3)CC2)=N/C1=C\c1ccc(Oc2ccccc2)cc1 [Compound 10] |  | 31.2 to 250 | > 250 | 1 | 1 | 2680 µg/mL and 5740 µM | 1 | 1 | 1 | 1 | 1 | 2 | 1 | 1 | 1 | 1 | 1 | 2 | time stable ([6]; basic conditions): 24 h
Cl.O=C1N=C(N2CCC(N3CCOCC3)CC2)N/C1=C\c1cccc2ccccc12 [Compound 11, (Z)-5-(Naphthalen-1-ylmethylene)-2-(4-Morpholinopiperidin-1-yl)-Imidazol-4(5H)-one Hydrochloride] | 31.2 to 250 | 31.2 to 250 | > 250 | 1 | 1 | 20200 µg/mL and 47300 µM | 1 | 1 | 1 | 1 | 1 | 2 | 1 | 2 | 2 | 2 | 2 | 2 | 
O=C1NC(N2CCC(N3CCOCC3)CC2)=N/C1=C\c1c2ccccc2cc2ccccc12 [Compound 13] | 31.2 to 250 | 31.2 to 250 | > 250 | 1 | 1 |  |  |  |  |  |  |  |  |  |  |  |  |  | MIC [7]: 2000 µM; MIC [3, 13]: > 2000 µM; MIC [8]: > 2000 µM; A (activity gain) [9]: 1; A (activity gain) [4, 14]: 1; A (activity gain) [10]: 1; Inhibition efficiency (IE) towards extrusion of 1,2'-dNA [11]: 23%
NC1=N/C(=C\c2ccc(Oc3ccccc3)cc2)C(=O)N1CCCN1CCOCC1 [Compound 17] |  | 31.2 to 250 | > 250 | 1 | 1 |  |  |  |  |  |  |  |  |  |  |  |  |  | 
O=C1NC(N2CCOCC2)=N/C1=C\c1ccc(-c2ccccc2)cc1 [Compound 7] | 31.2 to 250 | 31.2 to 250 | > 250 | 1 | 1 |  |  |  |  |  |  |  |  |  |  |  |  |  | MIC [7]: 2000 µM; MIC [3, 13]: > 2000 µM; MIC [8]: > 2000 µM; A (activity gain) [9]: 1; A (activity gain) [4, 14]: 1; A (activity gain) [10]: 1; Inhibition efficiency (IE) towards extrusion of 1,2'-dNA [11]: 59%
Cl.O=C1N=C(N2CCC(N3CCOCC3)CC2)N/C1=C\c1cccc2ccccc12 (hydrate or solvate) [Compound 11, (Z)-5-(Naphthalen-1-ylmethylene)-2-(4-Morpholinopiperidin-1-yl)-Imidazol-4(5H)-one Hydrochloride] |  |  |  |  |  |  |  |  |  |  |  |  |  |  |  |  |  |  | melting point: 244 to 249 °C
O=C1NC(N2CCC(N3CCOCC3)CC2)=N/C1=C\c1cccc(Oc2ccccc2)c1 [Compound 9] | 31.2 to 250 | 31.2 to 250 | > 250 | 1 | 1 | 1480 µg/mL and 3170 µM | 2 | 2 | 2 | 2 | 2 | 2 | 2 | 2 | 2 | 2 | 2 | 2 | 
O=C1NC(N2CCC(N3CCOCC3)CC2)=N/C1=C\c1ccc(-c2ccccc2)cc1 [Compound 8] |  | 31.2 to 250 | > 250 | 1 | 1 |  |  |  |  |  |  |  |  |  |  |  |  |  | 
